# Test results published in ChEMBL document CHEMBL4477256, “Newly synthesized bis-benzimidazole compound 8 induces apoptosis, autophagy and reactive oxygen species generation in HeLa cells” (Bioorg Med Chem Lett, 2016).
# Activity calls are given as the source filed them. No cut-off for these calls is given here.
# Legend:
# Assay type in all cases: functional, cell-based
# HeLa [1] = assay: Upregulation of FasL in human HeLa cells at 5 to 20 uM after 24 hrs by Western blot analysis
# HeLa [2] = assay: Cytotoxicity against human HeLa cells assessed as inhibition of cell growth after 24 hrs in presence of 3MA by MTT assay
# HeLa [3] = assay: Induction of apoptosis in human HeLa cells assessed as increase in subG0/G1 ratio after 24 hrs by PI staining-based flow cytometry
# HeLa [4] = assay: Induction of autophagy in human HeLa cells at 10 uM after 24 hrs by MDC staining-based fluorescence microscopic analysis
# HeLa [5] = assay: Upregulation of FADD in human HeLa cells at 5 to 20 uM after 24 hrs by Western blot analysis
# HeLa [6] = assay: Induction of autophagy in human HeLa cells in presence of NAC by MDC staining-based flow cytometry
# HeLa [7] = assay: Induction of autophagy in human HeLa cells assessed as conversion of LC3 1 to LC3 2 at 5 to 20 uM after 24 hrs by Western blot analysis
# HeLa [8] = assay: Induction of apoptosis in human HeLa cells assessed as increase in cytochrome c release from mitochondria to cytosol at 5 to 20 uM after 24 hrs by Western blot analysis
# HeLa [9] = assay: Induction of ROS generation in human HeLa cells at up to 5 uM after 24 hrs by H2DCF-DA staining-based flow cytometry
# HeLa [10] = assay: Induction of apoptosis in human HeLa cells assessed as increase in subG0/G1 ratio at 10 uM after 24 hrs in presence of ZVAD by PI staining-based flow cytometry
# HeLa [11] = assay: Induction ROS generation in human HeLa cells in presence of 3MA by flow cytometry
# HeLa [12] = assay: Induction of autophagy in human HeLa cells after 24 hrs by MDC staining-based flow cytometry
# HeLa [13] = assay: Induction of autophagy in human HeLa cells preincubated at 10 uM in presence of ZVAD for 24 hrs by MDC staining-based flow cytometry
# HeLa [14] = assay: Induction of apoptosis in human HeLa cells assessed as chromatin condensation at 10 uM after 24 hrs by AO staining-based microscopic analysis
# HeLa [15] = assay: Upregulation of caspase-3 in human HeLa cells at 5 to 20 uM after 24 hrs by Western blot analysis
# HeLa [16] = assay: Upregulation of caspase-8 in human HeLa cells at 5 to 20 uM after 24 hrs by Western blot analysis
# HeLa [17] = assay: Induction ROS generation in human HeLa cells in presence of ZVAD by flow cytometry
# HeLa [18] = assay: Induction of apoptosis in human HeLa cells assessed as increase in subG0/G1 ratio preincubated with 3MA for 1 hr followed by compound treatment at 10 uM for 24 hrs by PI staining-based flow cytometry
# HeLa [19] = assay: Upregulation of beclin 1 in human HeLa cells at 5 to 20 uM after 24 hrs in presence of 3MA by Western blot analysis
# HeLa [20] = assay: Upregulation of Fas in human HeLa cells at 5 to 20 uM after 24 hrs by Western blot analysis
# HeLa [21] = assay: Induction of ROS generation in human HeLa cells at 10 uM in presence of NAC by H2DCF-DA staining-based flow cytometry
# HeLa [22] = assay: Induction of autophagy in human HeLa cells after 24 hrs in presence of 3MA by MDC staining-based flow cytometry
# HeLa [23] = assay: Induction of apoptosis in human HeLa cells assessed as reduction in mitochondrial membrane potential at 5 to 20 uM after 24 hrs by Rhodamine123 staining-based flow cytometry
# HeLa [24] = assay: Induction of apoptosis in human HeLa cells assessed as increase in subG0/G1 ratio in presence of NAC by PI staining-based flow cytometry
# HeLa [25] = assay: Cytotoxicity against human HeLa cells assessed as inhibition of cell growth at 5 to 20 uM by MTT assay; conditions: TDE = time-dependent effect
# HeLa [26] = assay: Upregulation of beclin 1 in human HeLa cells at 5 to 20 uM after 24 hrs by Western blot analysis
# HeLa [27] = assay: Induction of autophagy in human HeLa cells assessed as conversion of LC3 1 to LC3 2 at 5 to 20 uM after 24 hrs in presence of 3MA by Western blot analysis
# HeLa [28] = assay: Induction of ROS generation in human HeLa cells at 10 to 20 uM after 24 hrs by H2DCF-DA staining-based flow cytometry
# HeLa [29] = assay: Cytotoxicity against human HeLa cells assessed as inhibition of cell growth after 12 to 48 hrs by MTT assay
# HeLa [30] = assay: Induction of apoptosis in human HeLa cells assessed as nuclear fragmentation at 10 uM after 24 hrs by AO staining-based microscopic analysis
# HeLa [31] = assay: Induction of apoptosis in human HeLa cells assessed as increase in Bax/Bcl-2 ratio at 5 to 20 uM after 24 hrs by Western blot analysis
# HeLa [32] = assay: Induction of apoptosis in human HeLa cells assessed as formation of apoptotic bodies at 10 uM after 24 hrs by phase contrast microscopic analysis
smiles,measurement,setting,value
COc1ccc(-c2nc3cc(Oc4ccc5[nH]c(-c6ccc(OC)cc6)nc5c4)ccc3[nH]2)cc1,Activity,HeLa [1],Active
same,Activity,HeLa [2],inactive
same,Activity,HeLa [3],Dose-dependent effect
same,Activity,HeLa [4],Active
same,Activity,HeLa [5],Active
same,Activity,HeLa [6],inactive
same,Activity,HeLa [7],Active
same,Activity,HeLa [8],Active
same,Activity,HeLa [9],Active
same,Activity,HeLa [10],inactive
same,Activity,HeLa [11],inactive
same,Activity,HeLa [12],Dose-dependent effect
same,Activity,HeLa [13],Active
same,Activity,HeLa [14],Active
same,Activity,HeLa [15],Active
same,Activity,HeLa [16],Active
same,Activity,HeLa [17],inactive
same,Activity,HeLa [18],inactive
same,Activity,HeLa [19],inactive
same,Activity,HeLa [20],Active
same,Activity,HeLa [21],inactive
same,Activity,HeLa [22],inactive
same,Activity,HeLa [23],Active
same,Activity,HeLa [24],inactive
same,inhibition,HeLa [25],Tde
same,Activity,HeLa [26],Active
same,Activity,HeLa [27],inactive
same,Activity,HeLa [28],inactive
same,Activity,HeLa [29],Dose-dependent effect
same,Activity,HeLa [30],Active
same,Activity,HeLa [31],Active
same,Activity,HeLa [32],Active
